Laboratory results reported in US20180296537A1, “METHODS AND COMPOSITIONS FOR DIAGNOSING, TREATING, AND MONITORING TREATMENT OF SHANK3 DEFICIENCY ASSOCIATED DISORDERS” (Novartis AG, priority 2015, published 2018).
Where a SMILES comes first, the peptide text is derived from it. The star is where a group is joined. Cbz = O=C(OCc1ccccc1)*

Assays:
CLK2 = assay: Western blot of CLK2 protein expression in primary neurons; type: cell-based, rat
Excerpt: E18 primary rat cortical neurons were dissected, cultured and infected 6 days after plating (DIV6) with indicated lentiviruses at MOI 10, as previously described (Proenca et al., 2013). Lentiviruses were produced by calcium phosphate transfection of HEK293T cells with packaging plasmids (Life Technologies) and transfer plasmid in 10 cm dishes. Cells were transferred to fresh medium 6 hrs. post-transfection. Four days post-transfection, the cell medium was collected and pooled from several dishes, cleared of cellular debris by 0.45 μm filtration, and concentrated 100× by centrifugation at 19,000 g for 90 min in a Beckman Ultracentrifuge using a SW28/SW32 rotor. Pellets were suspended in PBS/0.5% BSA and viral titer was determined by ELISA quantification of viral p24 antigen (Zeptometrix Corp, USA). For shRNA plasmid generation, oligonucleotides were annealed and ligated into lentiviral transfer plasmid pLKO.1-GFP vector at the AgeI/EcoRI sites. The target sequences of shRNAs that target rat and mouse Shank3 (5′-3′) are: […] (SEQ ID NO: 1), […] (SEQ ID NO: 2), and […] (SEQ ID NO: 3). The latter was previously reported (Verpelli et al., 2011). A luciferase-targeting sequence was used as an shRNA control: […] (SEQ ID NO: 4).
For immunoprecipitation (IP) of HA-tagged Akt, neurons were lysed in IP buffer (20 mM Tris-HCl pH 7.4, 3 mM EDTA, 3 mM EGTA, 150 mM NaCl, 0.5% NP-40, and protease/phosphatase inhibitor cocktails (Roche)). Lysates were cleared by centrifugation at 13,000 rpm for 10 min and lysates normalized for protein abundance were immunoprecipitated with rabbit HA-tag antibody for 1 h at 4° C. Immuno-complexes were then captured by incubation for an additional 1 hr with Protein A agarose beads (Roche). Beads were washed three times with IP buffer and bound proteins were eluted with 2×SDS-PAGE sample buffer, then boiled for 5 min. […]

PMDS patients = details: pilot studies; cited from earlier work
Akt = assay: Western blot of Akt phosphorylation in rat primary cortical neurons (Shank3 knock down vs control); type: cell-based; details: DIV 16
Excerpt: E18 primary rat cortical neurons were dissected, cultured and infected 6 days after plating (DIV6) with indicated lentiviruses at MOI 10, as previously described (Proenca et al., 2013). Lentiviruses were produced by calcium phosphate transfection of HEK293T cells with packaging plasmids (Life Technologies) and transfer plasmid in 10 cm dishes. Cells were transferred to fresh medium 6 hrs. post-transfection. Four days post-transfection, the cell medium was collected and pooled from several dishes, cleared of cellular debris by 0.45 μm filtration, and concentrated 100× by centrifugation at 19,000 g for 90 min in a Beckman Ultracentrifuge using a SW28/SW32 rotor. Pellets were suspended in PBS/0.5% BSA and viral titer was determined by ELISA quantification of viral p24 antigen (Zeptometrix Corp, USA). For shRNA plasmid generation, oligonucleotides were annealed and ligated into lentiviral transfer plasmid pLKO.1-GFP vector at the AgeI/EcoRI sites. The target sequences of shRNAs that target rat and mouse Shank3 (5′-3′) are: […] […] (SEQ ID NO: 2), and […] (SEQ ID NO: 3). The latter was previously reported (Verpelli et al., 2011). A luciferase-targeting sequence was used as an shRNA control: […] (SEQ ID NO: 4).
For immunoprecipitation (IP) of HA-tagged Akt, neurons were lysed in IP buffer (20 mM Tris-HCl pH 7.4, 3 mM EDTA, 3 mM EGTA, 150 mM NaCl, 0.5% NP-40, and protease/phosphatase inhibitor cocktails (Roche)). Lysates were cleared by centrifugation at 13,000 rpm for 10 min and lysates normalized for protein abundance were immunoprecipitated with rabbit HA-tag antibody for 1 h at 4° C. Immuno-complexes were then captured by incubation for an additional 1 hr with Protein A agarose beads (Roche). Beads were washed three times with IP buffer and bound proteins were eluted with 2×SDS-PAGE sample buffer, then boiled for 5 min. For IP and analysis of ubiquitinated Myc-Clk2, neurons were lysed in Ubiquitin IP buffer (20 mM Tris-HCl pH 7.4, 3 mM EDTA, 3 mM EGTA, 150 mM NaCl, 1% Triton X-100, protease/phosphatase inhibitor cocktails (Roche), 5 mM N-ethylmaleimide, and 3 mM iodoacetamide) containing 1% SDS. Lysates were boiled for 20 min to denature proteins and then centrifuged for 10 min at 13,000 rpm. Lysates were subsequently diluted to 0.1% SDS with Ubiquitin IP buffer and immunoprecipitated with Myc antibody for 1 h. Complexes were then captured by addition of Protein G agarose (Roche) and additional 1 h incubation. Beads were washed 3× and eluted with 2×SDS-PAGE sample buffer, then boiled for 5 min. Samples prepared for SDS-PAGE were then resolved on 4-12% Novex gels (Life Technologies), transferred to PVDF membranes, blocked in 5% low-fat milk in TBS/0.1% Tween-20, and incubated overnight with primary antibodies. After washing and 1 h incubation with secondary antibodies, proteins were visualized by Chemiluminescent detection (Amersham-GE Healthcare Life Sciences).
To determine whether Shank3 deficiency impacts the PI3K-Akt-mTOR signaling pathway (FIG. 1A, gray highlight), lentiviral-mediated delivery of shRNAs was used to knock-down Shank3 in rat primary cortical neuron cultures. Cultured rat primary cortical neurons were transduced with lentiviruses encoding control shRNA or Shank3-shRNA at six days in vitro (DIV 6) and treated with BDNF (50 ng/ml) for 15 or 30 min at 14-16 days in vitro (DIV 14-16). Cell lysates were prepared in RIPA buffer prior to resolution by SDS-PAGE and Western blotting.
Cortical neurons, transduced with shRNA-expressing lentiviruses on DIV 6, were treated with 50 ng/ml BDNF or okadaic acid (100 nM) on DIV 16 and cell lysates were resolved by SDS-PAGE, followed by Western blotting.

CA1 pyramidal neurons = assay: Dendritic spine density in hippocampal organotypic slice cultures; type: cell-based, mouse
Protocol: Wilde type (C57B1/6) mice were housed in a temperature-controlled room and maintained on a 12 hr light/dark cycle. Food and water were available ad libitum and experiments were carried out in accordance with the local authorization guidelines for the care and use of laboratory animals. Slice cultures were established according to the procedure described by Stoppini and colleagues (Galimberti et al., 2006; Stoppini et al., 1991). […] For organotypic slice cultures, brains of P6-P9 transgenic mice were dissected in cold MEM (GIBCO) medium, and hippocampal coronal sections of 400 μm were obtained with a tissue chopper (McIlwain). Slices were selected, placed on Millicell (Millipore, PICM03050) and cultured in 6-well dishes at 35° C. and 5% CO2 in the presence of 1 ml of medium. The entire slice isolation procedure took about 30 min. The culture medium was exchanged every third day. Treatments were performed in fresh culture medium for the indicated time periods.
Brain slices were transfected with plasmids encoding shCont, and shShank3 using helios gene gun system (Bio-Rad Laboratories, #165-2431) as previously described (Proenca et al., 2013). Subsequently, slices were fixed, stained, mounted, and analyzed following the protocols described below in the immunohistochemistry and microscopy paragraphs.
Slices were fixed for 10 minutes in 4% PFA, washed in PBS and blocked for 4 hr at room temperature in 0.3% Triton X-100 20% Horse Serum/PBS (blocking solution). GFP primary antibody was incubated for 24 hr at 4° C. in the blocking solution. Afterwards, slices were washed in PBS, incubated for 2 hr in 0.3% Triton X-100/PBS with Alexa Fluor® 488 Donkey anti-chicken secondary antibody (Life technologies). Finally, slices were washed in PBS, incubated 10 minutes with DAPI (Life technologies) and mounted on glass slides using ProLong mountant (Life technologies).
High resolution images were acquired on an upright Zeiss LSM700 confocal microscope, using a Plan-Neofluar 100×/1.3 oil immersion objective. For the analysis of dendritic spine density, confocal 3D stacks were acquired in CA1 region for each experiment. To quantify spine density, a stretch of approximately 30 μm was selected on secondary dendrites originating at the branch point from the primary dendrite. Only secondary dendrites were considered to reduce variability. Dendritic length was measured using the ImageJ plugin, Simple Neurite tracer, and spine density manually counted using the Cell Counter plugin.
The above findings implicate CLK2 overexpression as a specific anomaly that is causative for attenuated Akt activity in neurons deficient for Shank3. Consequently, inhibiting CLK2 activity or directly activating Akt would restore neuronal impairments associated with Shank3 loss of function. First, a small-molecule Akt-activator, SC79, was tested for its ability to restore Akt phosphorylation (FIG. 5A). SC79 binds directly to Akt to facilitate an ‘open’ conformation of the protein that is accessible to upstream activating kinases (eg. PDK1). This obviates the need for PtdIns(3,4,5)P3 (PIP3) production and recruitment of Akt to the plasma membrane (Rodgers, Cell Metab. 11, 23-34, 2010). […] Decreased principal neuron dendritic spine density has frequently been observed in Shank3 loss of function models (Durand et al., 2007, Nature Genetics 39: 25-27; Peca et al., 2011, Nature 472: 437-442; Verpelli et al., 2011, The Journal of Biological Chemistry 286: 34839-34850). Knock-down of Shank3 in hippocampal organotypic slice cultures, via biolistic transfection of shRNA vectors, faithfully recapitulated this phenotype in CA1 pyramidal neurons, whereby a two-fold reduction in apical dendrite spine density resulted (FIG. 6A). […]

Shank3 knock-out mice = details: cited from earlier work
PMDS neurons = details: cited from earlier work

## CC(C)C[C@@H](C=O)NC(=O)[C@H](CC(C)C)NC(=O)[C@H](CC(C)C)NC(=O)OCc1ccccc1 [MG132] (Cbz-Leu-Leu-Leu-aldehyde)
CLK2; control cells, 2.5 or 20 μM MG132, 30 minutes
  CLK2 protein level: rapid increase of CLK2 in control cells

## insulin: insulin
PMDS patients
  motor, cognitive and social impairments: beneficial

## wild type B56β: Flag-tagged wild type B56β regulatory subunit of PP2A, expressed by lentiviral transduction
Akt; Shank3 knock down neurons, lentiviral co-expression of Flag-tagged B56β, 50 ng/ml BDNF
  Akt phosphorylation: had no effect

## IGF-1: insulin-like growth factor-1
CA1 pyramidal neurons; Shank3 knockdown neurons, 1 μg/ml IGF-1 24 h, with or without 10 μM Akti, fixed DIV 14
  dendritic spine density: restored normal dendritic spine density to Shank3 knockdown neurons, in an Akt-dependent manner
PMDS patients
  motor, cognitive and social impairments: beneficial
Shank3 knock-out mice
  synaptic and motor deficits: alleviated synaptic and motor deficits in Shank3 knock-out mice
PMDS neurons
  synaptic impairment: alleviated

## O=c1[nH]c2ccccc2n1C1CCN(Cc2ccc(-c3nc4cc5[nH]cnc5cc4nc3-c3ccccc3)cc2)CC1 [Akti]
CA1 pyramidal neurons; Shank3 knock down neurons, 10 μM Akti included in TG003 treatment
  effect of TG003 on spine density with Akt inhibitor: blocked
CA1 pyramidal neurons; Thy1-mGFP transfected slice cultures, 10 μM Akti 24 h, fixed DIV14
  dendritic spine density: sufficient to reduce dendritic spine density

## C=C1[C@@H](O)[C@@H]2O[C@]3(CC[C@H](/C=C/[C@@H](C)[C@@H]4CC(C)=C[C@@]5(O[C@H](C[C@@](C)(O)C(=O)O)CC[C@H]5O)O4)O3)CC[C@H]2O[C@@H]1[C@@H](O)C[C@H](C)[C@H]1O[C@@]2(CCCCO2)CC[C@H]1C [okadaic acid]
Akt; okadaic acid 100 nM
  increase of Akt T308 phosphorylation in Shank3 knock down neurons versus increase in control neurons: two-fold greater
Akt; okadaic acid 100 nM, alone or with 50 ng/ml BDNF, control and Shank3 knock down neurons
  Akt T308 phosphorylation: enhanced Akt T308 phosphorylation in both control and Shank3 knock down neurons

B1: BDNF: brain derived neurotrophic factor (protein, UniProt P23560 19-247, looked up)
Neurotrophic factor BDNF …: APMKEANIRGQGGLAYPGVRTHGTLESVNGPKAGSRGLTSLADTFEHVIEELLDEDQKVRPNEENNKDADLYTSRVMLSSQVPLEPPLLFLLEEYKNYLDAANMSMRVRRHSDPARRGELSVCDSISEWVTAADKKTAVDMSGGTVTVLEKVPVSKGQLKQYFYETKCNPMGYTKEGCRGIDKRHWNSQCRTTQSYVRALTMDSKKRIGWRFIRIDTSCVCTLTIKRGR
CLK2; Shank3 knock down neurons, BDNF treatment
  CLK2 protein level: elicited no significant further increase of CLK2 levels
CLK2; control neurons, BDNF 30 minutes
  CLK2 protein level: induced the accumulation of CLK2 in control neurons
